ChEMBL document CHEMBL4622831, “Anti-diabetic drugs recent approaches and advancements” (Bioorg Med Chem, 2020)
pEC50, pIC50: −log10 of the molar value.

Columns and labels:
[1] = molecular target: T1, Glucose-dependent insulinotropic receptor (Homo sapiens, UniProt Q8TDV5); assay: Agonist activity at human GPR119
T1 sequence (Q8TDV5 whole entry): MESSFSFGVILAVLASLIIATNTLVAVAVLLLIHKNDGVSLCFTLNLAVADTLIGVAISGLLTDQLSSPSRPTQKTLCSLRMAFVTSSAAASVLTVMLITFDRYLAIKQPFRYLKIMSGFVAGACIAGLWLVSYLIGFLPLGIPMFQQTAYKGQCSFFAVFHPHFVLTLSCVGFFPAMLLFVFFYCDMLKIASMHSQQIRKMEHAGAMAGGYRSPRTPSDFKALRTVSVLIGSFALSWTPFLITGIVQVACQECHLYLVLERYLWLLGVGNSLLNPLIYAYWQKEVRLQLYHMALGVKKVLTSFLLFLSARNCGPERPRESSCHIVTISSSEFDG

[2] = Toxicity in mouse; format: organism-based; settings: in vivo
[3] = molecular target: T2, Sodium/glucose cotransporter 1 (Homo sapiens, UniProt P13866); assay: Inhibition of human SGLT1
T2 sequence (P13866 whole entry): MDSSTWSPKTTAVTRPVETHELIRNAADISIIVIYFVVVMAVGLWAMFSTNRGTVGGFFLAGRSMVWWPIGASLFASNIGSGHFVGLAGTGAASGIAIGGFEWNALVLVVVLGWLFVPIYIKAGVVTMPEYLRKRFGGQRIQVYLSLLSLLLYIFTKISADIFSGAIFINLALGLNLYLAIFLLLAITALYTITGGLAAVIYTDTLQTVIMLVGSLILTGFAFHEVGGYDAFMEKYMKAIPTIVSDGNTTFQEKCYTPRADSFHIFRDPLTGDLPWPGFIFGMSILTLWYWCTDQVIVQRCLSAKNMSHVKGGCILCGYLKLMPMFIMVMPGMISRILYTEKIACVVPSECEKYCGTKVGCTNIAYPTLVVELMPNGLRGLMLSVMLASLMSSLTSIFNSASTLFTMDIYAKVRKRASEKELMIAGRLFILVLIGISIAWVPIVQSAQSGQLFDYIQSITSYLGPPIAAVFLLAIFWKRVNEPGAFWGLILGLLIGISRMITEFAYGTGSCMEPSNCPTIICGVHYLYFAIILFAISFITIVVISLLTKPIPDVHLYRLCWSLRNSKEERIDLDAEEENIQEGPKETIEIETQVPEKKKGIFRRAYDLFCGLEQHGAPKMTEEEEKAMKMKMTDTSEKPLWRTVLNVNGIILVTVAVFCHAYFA

[4] = molecular target: T3, Sodium/glucose cotransporter 2 (Homo sapiens, UniProt P31639); assay: Inhibition of human SGLT2
T3 sequence (P31639 whole entry): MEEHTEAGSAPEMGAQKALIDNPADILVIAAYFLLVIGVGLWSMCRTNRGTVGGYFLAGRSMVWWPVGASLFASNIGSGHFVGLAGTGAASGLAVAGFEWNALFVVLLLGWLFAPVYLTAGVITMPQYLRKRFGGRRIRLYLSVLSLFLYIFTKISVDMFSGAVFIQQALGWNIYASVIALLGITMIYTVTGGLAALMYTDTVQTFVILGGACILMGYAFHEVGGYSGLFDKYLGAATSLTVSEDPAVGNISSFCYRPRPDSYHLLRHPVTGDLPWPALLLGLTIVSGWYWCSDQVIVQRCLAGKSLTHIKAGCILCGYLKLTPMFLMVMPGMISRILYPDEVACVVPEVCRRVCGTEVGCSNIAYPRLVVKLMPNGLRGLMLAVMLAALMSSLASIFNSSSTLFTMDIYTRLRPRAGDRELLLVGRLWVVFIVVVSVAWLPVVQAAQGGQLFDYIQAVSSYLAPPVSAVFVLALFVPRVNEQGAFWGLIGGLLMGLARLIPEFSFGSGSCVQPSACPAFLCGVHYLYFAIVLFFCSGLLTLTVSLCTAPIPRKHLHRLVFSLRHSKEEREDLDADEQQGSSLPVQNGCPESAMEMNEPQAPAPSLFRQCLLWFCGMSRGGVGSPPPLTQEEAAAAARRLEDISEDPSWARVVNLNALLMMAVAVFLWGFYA

Dipeptidyl peptidase 4 [5] = molecular target: T4, Dipeptidyl peptidase 4 (Homo sapiens, UniProt P27487); assay: Inhibition of recombinant human DPP4 using Gly-Pro-AMC as substrate preincubated for 10 mins followed by substrate addition
T4 sequence (P27487 whole entry): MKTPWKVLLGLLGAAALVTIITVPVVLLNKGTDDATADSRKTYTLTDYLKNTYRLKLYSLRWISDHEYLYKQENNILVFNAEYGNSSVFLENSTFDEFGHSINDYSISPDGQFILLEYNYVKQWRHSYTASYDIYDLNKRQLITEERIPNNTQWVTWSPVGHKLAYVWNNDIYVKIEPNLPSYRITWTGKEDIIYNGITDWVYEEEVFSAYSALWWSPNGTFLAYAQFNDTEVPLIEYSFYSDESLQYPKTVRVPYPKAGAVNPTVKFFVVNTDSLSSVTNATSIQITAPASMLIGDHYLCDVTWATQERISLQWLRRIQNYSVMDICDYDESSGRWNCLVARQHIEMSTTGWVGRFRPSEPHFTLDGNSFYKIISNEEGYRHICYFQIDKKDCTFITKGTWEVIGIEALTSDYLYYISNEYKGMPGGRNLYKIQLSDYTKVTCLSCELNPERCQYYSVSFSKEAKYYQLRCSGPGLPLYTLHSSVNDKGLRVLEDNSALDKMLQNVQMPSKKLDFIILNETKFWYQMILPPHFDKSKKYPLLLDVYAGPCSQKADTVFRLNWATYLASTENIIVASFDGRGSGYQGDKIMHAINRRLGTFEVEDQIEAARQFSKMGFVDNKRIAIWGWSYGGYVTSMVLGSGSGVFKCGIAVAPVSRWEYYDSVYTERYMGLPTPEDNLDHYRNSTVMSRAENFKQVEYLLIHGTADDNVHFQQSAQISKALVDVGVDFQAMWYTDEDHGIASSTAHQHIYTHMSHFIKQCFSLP

[6] = Inhibition of Saccharomyces cerevisiae alpha-glucosidase using p-nitrophenyl glucopyranoside as substrate preincubated for 10 mins followed by substrate addition measured after 20 mins by spectrophotometric analysis
Dipeptidyl peptidase 4 [7] = molecular target: T4, Dipeptidyl peptidase 4; assay: Inhibition of recombinant human DPP4 using Gly-Pro-AMC as substrate preincubated for 10 mins followed by substrate addition by florescence assay

## CC(C)(C)OC(=O)N1C2CCC1CC(Nc1nc(Nc3ccc(S(C)(=O)=O)cc3F)nc3c1CCCC3)C2 (configuration not stated)
[1]
  pEC50: 6.57

## N#C[C@@H]1CCCN1C(=O)CNC12CC3CC(CC(O)(C3)C1)C2 [VILDAGLIPTIN]
[2]
  MTD: 2000 mg/kg

## ONC[C@H]1C[C@@H](n2cc(Cc3ccc(C4CC4)cc3)c3c(Cl)cccc32)[C@H](O)[C@@H](O)[C@@H]1O
[3]
  pEC50: 7.43
[4]
  pEC50: 7.48

## CC#CCn1c(N2CCC[C@@H](N)C2)cc(=O)n(Cc2cn(CC(=O)N(C)C)nn2)c1=O
Dipeptidyl peptidase 4 [5]
  pIC50: 7.54

## COc1ccc2c(c1)C(SCC(=O)NCc1ccc(C)cc1)c1ccc(Cl)cc1C2 (configuration not stated)
[6]
  pIC50: 4.10

## Cc1ccc(NS(=O)(=O)c2ccc3c(c2)CCCC3)cc1
Dipeptidyl peptidase 4 [7]
  pIC50: 8.55
